From patent publication US6897288B1, “Mage-A12 antigenic peptides and uses thereof” (Ludwig Institute for Cancer Research, priority 1999, dated 2005)
pEC50: −log10 of the molar value.

Test system: autologous cell line LB-831-EBV pulsed with MAGE-A12 peptides, lysis by CTL 501D/19 (HLA-Cw*07 restricted)
Test: Chromium release cytotoxicity assay with peptide-pulsed cells
Assay type: cell-based, human
Conditions: effector to target ratio of 10, chromium release after 4 hours; for sensitization of peptide-pulsed LB-831-EBV cells to lysis by CTL 501D/19 (recognition by CTL): chromium-labeled cells pulsed 30 min with peptide
Description: The lytic activity of CTLs was tested in a chromium release assay as described previously (Boon et al., J. Exp. Med. 152:1184-1193, 1980). Briefly, 1,000 chromium-labeled cells in 100 μl were incubated in 96-well microplates with an equal volume of CTL at different effector to target ratios. Chromium release was measured after 4 h of incubation. For the peptide assay, labeled LB831-EBV cells were incubated for 30 min at 37° C. with various concentrations of peptides. CTL were then added and chromium release was measured as described above.
Cells transfected with fragments of 540 bp or more were capable of stimulating CTL 501D/19, whereas those transfected with shorter fragments were not. […] In the amino-acid sequence corresponding to nucleotides 525-540, two overlapping nonapeptides, EVVRIGHLY (codons 168-176 of MAGE-A12; SEQ ID NO:3) and VRIGHLYIL (codons 170-178 of MAGE-A12; SEQ ID NO:4) were found which conformed to the HLA-Cw7 peptide binding motif, i.e. tyrosine or leucine at the C terminus (Rammensee et al., Immunogenetics. 41:178, 1995). Decapeptide […] (SEQ ID NO:5), nonapeptide VRIGHLYIL (SEQ ID NO:4) and octapeptide RIGHLYIL (SEQ ID NO:6) sensitized the autologous lymphoblastoid cell line LB-83]-EBV to lysis by CTL 501D/19 (FIG. 4). Autologous cell line LB-831-EBV was loaded with MAGE-A12 peptides VRIGHLYIL (SEQ ID NO:4), VVRIGHLYIL (SEQ ID NO:5), or RIGHLYIL (SEQ ID NO:6), and contacted with CTL 501D/19. Chromium-labeled cells were pulsed for 30 min with the indicated concentrations of peptides (VRIGHLYIL (SEQ ID NO:4) or […] (SEQ ID NO:6)). CTL 501D/19 was added at an effector to target ratio of 10. Chromium release was measured after 4 hours.

EVVRIGHLY (listed as Homo sapiens) [SEQ ID NO:3, nonapeptide, codons 168-176 of MAGE-A12]
sensitization of peptide-pulsed LB-831-EBV cells to lysis by CTL 501D/19 (recognition by CTL): not recognized

RIGHLYIL [SEQ ID NO:6]
sensitization of peptide-pulsed LB-831-EBV cells to lysis by CTL 501D/19 (recognition by CTL): sensitized

VRIGHLYIL [SEQ ID NO:4]
pEC50 (LB-831-EBV cells pulsed 30 min, read-out: peptide concentration giving half-maximal lysis by CTL 501D/19): 10.00 | sensitization of peptide-pulsed LB-831-EBV cells to lysis by CTL 501D/19 (recognition by CTL): sensitized

VVRIGHLYIL [SEQ ID NO:5]
sensitization of peptide-pulsed LB-831-EBV cells to lysis by CTL 501D/19 (recognition by CTL): sensitized
